Measurements reported in patent US10760110B2, “Antibiotic testing and screening system” (priority 2017, dated 2020).
≈ marks a conversion by molar mass, not a printed value. Like-named read-outs stand apart in the source and are kept apart here.

How the values were obtained:
[1] = test system: K. pneumoniae NVT1001 and its ΔompK35/36 and/or ΔramR mutants; assay: Etest MIC, OmpK35/36 loss and AcrAB-TolC overexpression (ΔramR) strains (Table 6); format: cell-based, Klebsiella pneumoniae
Method: (§1) The MICs of antibiotics were determined using the Etest (Biodisk AB, Sweden) according to the manufacturer's instructions. The MICs from the Etest, which fall between standard two-fold dilutions, were rounded up to the next highest two-fold value. The MICs of ceftazidime and cefotaxime against K. pneumoniae NVT1001 harbouring the pACYC177 plasmid with blaOXA-48 were further determined using a broth microdilution test according to the recommendations of the CLSI,^25 and the results were interpreted according to the breakpoints established by the CLSI in 2017.^25 Meanwhile, due to the lack of CLSI breakpoints in 2016 and 2017, the results for cephalothin were interpreted according to the breakpoints established by the CLSI in 2015,^26 and the results for moxifloxacin were interpreted according to the breakpoints established by the EUCAST in 2017.^27

[2] = test system: K. pneumoniae NVT1001 ΔramRΔompK35/36 mutant and its revertants; assay: Etest MIC, ΔramRΔompK35/36 mutant and its revertants (Table 7); format: cell-based; details: Klebsiella pneumoniae
Source text: The allelic-exchange method was used to restore the wild-type gene in the K. pneumoniae NVT1001 mutants with constructed chromosome-mediated resistance mechanisms, as described by Tsai et al.^19 Briefly, a DNA fragment of the entire wild-type gene sequence along with flanking regions was amplified from K. pneumoniae NVT1001 using PCR with specific primers. The resulting PCR fragment was digested and then cloned into pUT-KB. For homologous recombination, this plasmid was transformed into E. coli S17-1 λpir^23 via electroporation and mobilized into the K. pneumoniae NVT1001 mutant via conjugation. […] After incubation in 20 mL BHI broth for 6 hours at 37° C. in the absence of kanamycin, the fully grown cultures were spread onto LB agar plates supplemented with 10% sucrose. After the double crossover occurred, the sucrose-resistant and kanamycin-susceptible colonies were selected, and the restoration of the wild-type gene was confirmed via DNA sequencing.
as §1

[3] = test system: K. pneumoniae NVT1001 strains with Sul/Dfr plasmids; assay: Etest MIC of folate pathway inhibitors, OmpK35/36 loss, ΔramR and/or drug-resistant target enzyme (Table 15); format: cell-based, Klebsiella pneumoniae; details: for MIC: Klebsiella pneumoniae
Method: DNA fragments of the resistance genes along with their flanking regions were amplified from clinical plasmids via PCR with specific primer pairs. The resulting PCR fragments were digested and then cloned into the plasmid pACYC177 or pACYC184. The resulting plasmids were then transformed into K. pneumoniae strain NVT1001 via electroporation. The recombinant bacteria were plated onto LB agar plates containing kanamycin (50 mg/L) or chloramphenicol (50 mg/L), and the presence of the cloned gene was confirmed via PCR and DNA sequencing.
as §1

[4] = Klebsiella pneumoniae, Δ35, ΔompK35 mutant
[5] = Klebsiella pneumoniae, Δ35/36, ΔompK35/36 mutant
[6] = Klebsiella pneumoniae, Δ36, ΔompK36 mutant
[7] = Klebsiella pneumoniae, ΔramR mutant
[8] = Klebsiella pneumoniae, ΔramRΔ35, ΔramRΔompK35 mutant
[9] = Klebsiella pneumoniae, ΔramRΔ35/36, ΔramRΔompK35/36 mutant
[10] = Klebsiella pneumoniae, ΔramRΔ36, ΔramRΔompK36 mutant
[11] = ΔramRΔompK35/36::ompK35/36 revertant
[12] = ΔramRΔompK35/36::ompK35 revertant
[13] = ΔramRΔompK35/36::ompK36 revertant
[14] = ΔramRΔompK35/36::ramR revertant
[15] = ΔramRΔompK35/36::ramR::ompK35/36 revertant
[16] = ΔramRΔompK35/36::ramR::ompK35 revertant
[17] = ΔramRΔompK35/36::ramR::ompK36 revertant
[18] = ΔramRΔ35/36, ΔramRΔompK35/36 mutant
[19] = Klebsiella pneumoniae, WT, NVT1001, read-out: MIC

## O=C(N[C@H](CO)[C@H](O)c1ccc([N+](=O)[O-])cc1)C(Cl)Cl [Chloramphenicol]
[1]; Klebsiella pneumoniae, WT, NVT1001
  MIC: 8 µg/mL (≈ 24.8 µM)
[1]; [4]
  MIC: 8 µg/mL (≈ 24.8 µM)
[1]; [5]
  MIC: 8 µg/mL (≈ 24.8 µM)
[1]; [6]
  MIC: 8 µg/mL (≈ 24.8 µM)
[1]; [7]
  MIC: 128 µg/mL (≈ 396 µM)
[1]; [8]
  MIC: 128 µg/mL (≈ 396 µM)
[1]; [9]
  MIC: 128 µg/mL (≈ 396 µM)
[1]; [10]
  MIC: 128 µg/mL (≈ 396 µM)
[2]; [11]
  MIC: 64 µg/mL
[2]; [12]
  MIC: 128 µg/mL
[2]; [13]
  MIC: 64 µg/mL
[2]; [14]
  MIC: 8 µg/mL
[2]; [15]
  MIC: 4 µg/mL
[2]; [16]
  MIC: 4 µg/mL
[2]; [17]
  MIC: 8 µg/mL
[2]; ΔramRΔompK35/36 mutant
  MIC: 128 µg/mL

## Polymyxin B
[1]; WT, NVT1001
  MIC: 2 µg/mL
[1]; Δ35, ΔompK35 mutant
  MIC: 2 µg/mL
[1]; Δ35/36, ΔompK35/36 mutant
  MIC: 2 µg/mL
[1]; Δ36, ΔompK36 mutant
  MIC: 2 µg/mL
[1]; ΔramR mutant
  MIC: 1 µg/mL
[1]; ΔramRΔ35, ΔramRΔompK35 mutant
  MIC: 1 µg/mL
[1]; [18]
  MIC: 1 µg/mL
[1]; ΔramRΔ36, ΔramRΔompK36 mutant
  MIC: 2 µg/mL

## COc1cc(Cc2cnc(N)nc2N)cc(OC)c1OC [Trimethoprim]
[1]; [19]
  MIC: 2 µg/mL (≈ 6.89 µM)
[1]; [4]
  MIC: 2 µg/mL (≈ 6.89 µM)
[1]; [5]
  MIC: 2 µg/mL (≈ 6.89 µM)
[1]; [6]
  MIC: 2 µg/mL (≈ 6.89 µM)
[1]; [7]
  MIC: 8 µg/mL (≈ 27.6 µM)
[1]; [8]
  MIC: 8 µg/mL (≈ 27.6 µM)
[1]; [9]
  MIC: > 32 µg/mL
[1]; [10]
  MIC: 16 µg/mL (≈ 55.1 µM)
[3]; DfrA1 on pACYC177, WT (NVT1001), read-out: MIC
  MIC: > 32 µg/mL
[3]; DfrA1 on pACYC177, ΔompK35/36 mutant
  MIC: > 32 µg/mL
[3]; DfrA1 on pACYC177, ΔompK35 mutant
  MIC: > 32 µg/mL
[3]; DfrA1 on pACYC177, ΔompK36 mutant
  MIC: > 32 µg/mL
[3]; DfrA1 on pACYC177, ΔramR mutant
  MIC: > 32 µg/mL
[3]; DfrA1 on pACYC177, ΔramRΔompK35/36 mutant
  MIC: > 32 µg/mL
[3]; DfrA1 on pACYC177, ΔramRΔompK35 mutant
  MIC: > 32 µg/mL
[3]; DfrA1 on pACYC177, ΔramRΔompK36 mutant
  MIC: > 32 µg/mL
[3]; DfrA16 on pACYC177, WT (NVT1001), read-out: MIC
  MIC: > 32 µg/mL
[3]; DfrA16 on pACYC177, ΔompK35/36 mutant
  MIC: > 32 µg/mL
[3]; DfrA16 on pACYC177, ΔompK35 mutant
  MIC: > 32 µg/mL
[3]; DfrA16 on pACYC177, ΔompK36 mutant
  MIC: > 32 µg/mL
[3]; DfrA16 on pACYC177, ΔramR mutant
  MIC: > 32 µg/mL
[3]; DfrA16 on pACYC177, ΔramRΔompK35/36 mutant
  MIC: > 32 µg/mL
[3]; DfrA16 on pACYC177, ΔramRΔompK35 mutant
  MIC: > 32 µg/mL
[3]; DfrA16 on pACYC177, ΔramRΔompK36 mutant
  MIC: > 32 µg/mL
[3]; Sul1 on pACYC177, WT (NVT1001), read-out: MIC
  MIC: 2 µg/mL
[3]; Sul1 on pACYC177, ΔompK35/36 mutant
  MIC: 4 µg/mL
[3]; Sul1 on pACYC177, ΔompK35 mutant
  MIC: 2 µg/mL
[3]; Sul1 on pACYC177, ΔompK36 mutant
  MIC: 2 µg/mL
[3]; Sul1 on pACYC177, ΔramR mutant
  MIC: 16 µg/mL
[3]; Sul1 on pACYC177, ΔramRΔompK35/36 mutant
  MIC: > 32 µg/mL
[3]; Sul1 on pACYC177, ΔramRΔompK35 mutant
  MIC: 32 µg/mL
[3]; Sul1 on pACYC177, ΔramRΔompK36 mutant
  MIC: > 32 µg/mL
[3]; Sul2 on pACYC177, WT (NVT1001), read-out: MIC
  MIC: 2 µg/mL
[3]; Sul2 on pACYC177, ΔompK35/36 mutant
  MIC: 4 µg/mL
[3]; Sul2 on pACYC177, ΔompK35 mutant
  MIC: 4 µg/mL
[3]; Sul2 on pACYC177, ΔompK36 mutant
  MIC: 4 µg/mL
[3]; Sul2 on pACYC177, ΔramR mutant
  MIC: 16 µg/mL
[3]; Sul2 on pACYC177, ΔramRΔompK35/36 mutant
  MIC: > 32 µg/mL
[3]; Sul2 on pACYC177, ΔramRΔompK35 mutant
  MIC: 32 µg/mL
[3]; Sul2 on pACYC177, ΔramRΔompK36 mutant
  MIC: 32 µg/mL
[3]; no supplemental plasmid, WT (NVT1001), read-out: MIC
  MIC: 2 µg/mL
[3]; no supplemental plasmid, ΔompK35/36 mutant
  MIC: 2 µg/mL
[3]; no supplemental plasmid, ΔompK35 mutant
  MIC: 2 µg/mL
[3]; no supplemental plasmid, ΔompK36 mutant
  MIC: 2 µg/mL
[3]; no supplemental plasmid, ΔramR mutant
  MIC: 8 µg/mL
[3]; no supplemental plasmid, ΔramRΔompK35/36 mutant
  MIC: > 32 µg/mL
[3]; no supplemental plasmid, ΔramRΔompK35 mutant
  MIC: 8 µg/mL
[3]; no supplemental plasmid, ΔramRΔompK36 mutant
  MIC: 16 µg/mL
[3]; strains with porin loss and/or Sul production
  effects on the MIC: no significant (≥4-fold) effects
[2]; [11]
  MIC: 8 µg/mL
[2]; [12]
  MIC: 8 µg/mL
[2]; [13]
  MIC: 8 µg/mL
[2]; [14]
  MIC: 2 µg/mL
[2]; [15]
  MIC: 2 µg/mL
[2]; [16]
  MIC: 2 µg/mL
[2]; [17]
  MIC: 2 µg/mL
[2]; ΔramRΔompK35/36 mutant
  MIC: > 32 µg/mL

## C[C@@H]1O[C@@H]1P(=O)(O)O [Fosfomycin]
[1]; [19]
  MIC: 128 µg/mL (≈ 927 µM)
[1]; [4]
  MIC: 128 µg/mL (≈ 927 µM)
[1]; [5]
  MIC: 512 µg/mL (≈ 3710 µM)
[1]; [6]
  MIC: 256 µg/mL (≈ 1850 µM)
[1]; [7]
  MIC: 64 µg/mL (≈ 464 µM)
[1]; [8]
  MIC: 128 µg/mL (≈ 927 µM)
[1]; [9]
  MIC: > 1020 µg/mL
[1]; [10]
  MIC: 512 µg/mL (≈ 3710 µM)
[2]; [11]
  MIC: 64 µg/mL
[2]; [12]
  MIC: 512 µg/mL
[2]; [13]
  MIC: 128 µg/mL
[2]; [14]
  MIC: 512 µg/mL
[2]; [15]
  MIC: 128 µg/mL
[2]; [16]
  MIC: 256 µg/mL
[2]; [17]
  MIC: 128 µg/mL
[2]; ΔramRΔompK35/36 mutant
  MIC: > 1020 µg/mL

## Colistin
[1]; WT, NVT1001
  MIC: 1 µg/mL
[1]; Δ35, ΔompK35 mutant
  MIC: 1 µg/mL
[1]; Δ35/36, ΔompK35/36 mutant
  MIC: 1 µg/mL
[1]; Δ36, ΔompK36 mutant
  MIC: 1 µg/mL
[1]; ΔramR mutant
  MIC: 1 µg/mL
[1]; ΔramRΔ35, ΔramRΔompK35 mutant
  MIC: 1 µg/mL
[1]; [18]
  MIC: 1 µg/mL
[1]; ΔramRΔ36, ΔramRΔompK36 mutant
  MIC: 1 µg/mL
